Data taken from article PMC6054636, “Interaction between porous silica gel microcarriers and peptides for oral administration of functional peptides” (Scientific Reports, 2018).
Where no end group is shown, it is not given here.

Key:
[1] = amino acid hydrophobicity index; cited from earlier work
Source text: Rimola et al. reported a review paper on the effect of silica surface features on the adsorption of biomolecules, such as polypeptides. […] This tendency was also obtained in our experiments as described in Fig. 2C. […] All 5 ...

pepsin = molecular target: T1, pepsin (Sus scrofa, UniProt P00791); assay: Peptide digestive enzyme stability experiment (SGF with pepsin); type: in vitro ADME; conditions: SGF pH 1.2 with pepsin (0.32 g/100 mL), 60 min, 37 °C, RP-HPLC UV, no addition of pepsin = 100%
T1 construct: purchased WAKO, Japan 161–24482
T1 sequence (P00791 60-385): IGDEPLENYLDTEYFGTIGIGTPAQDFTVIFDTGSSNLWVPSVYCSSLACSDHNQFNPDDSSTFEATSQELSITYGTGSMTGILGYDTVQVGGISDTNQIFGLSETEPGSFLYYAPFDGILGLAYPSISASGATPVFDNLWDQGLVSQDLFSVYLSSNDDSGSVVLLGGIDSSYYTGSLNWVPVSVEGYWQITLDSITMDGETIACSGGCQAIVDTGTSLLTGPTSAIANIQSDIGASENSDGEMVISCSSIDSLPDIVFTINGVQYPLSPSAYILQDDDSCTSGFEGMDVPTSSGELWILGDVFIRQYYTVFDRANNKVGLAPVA
Description: Finally, we investigated whether the heat-treated silica gel used in this study protected the peptides that were adsorbed to them from pepsin degradation. We used DFELEDD with a high score value (Fig. 3D). The peptide was adsorbed to the heat-treated silica gel, incubated for 60 min in simulated gastric fluid containing pepsin, and then transferred to the pH 7.4 buffer that mimics the intestinal environment. […] In contrast, the degradation of the peptide was inhibited under the condition with silica gel and 57.1 ± 3.9% of the peptide was released. This occurred because the peptide was adsorbed to the pore surface of the heat-treated silica gel. Schlipf et al. reported EGFP (2.4 nm diameter × 4.2 nm) protection from proteolytic attack by Pepsin A (7.3 nm × 3.6 nm × 5.4 nm) by the mesoporous silica with 7.3 nm pores. […]
SGF (simulated gastric fluid) has been reported previously. […] To quantify the peptide, 250 μL of solution was injected into the HPLC.
Chromatographic analysis was performed with a HPLC system (JASCO, Japan) equipped with pump (model PU 2086 Plus), UV detector (model MD 4017), and a C18 column (d = 20 mm, L = 250 mm; SHISEIDO, Japan). […] The column was maintained at 30 °C, the flow rate was 5 mL/min, and the eluted peaks were detected by UV absorbance of 220 and 280 nm.

## CC[C@H](C)[C@H](N)C(=O)O [I]
[1]
  Hydrophobicity of amino acid: 4.5

## DFELEDD [DFELEDD]
pepsin; 0.5 mM peptide mixed with 25 mg/mL heat-treated silica gel, precipitate released in 300 μL PBS pH 7.4, mean ± SD
  Peptide release rate (protection) after pepsin degradation, with heat-treated silica gel: 57.1 ± 3.9%
pepsin; no silica gel, 0.5 mM peptide, then pH 7.4 PBS
  Peptide release rate after pepsin degradation, without silica gel: < 1.0%

## N[C@@H](Cc1ccccc1)C(=O)O [F, Phe]
[1]
  Hydrophobicity of amino acid: 2.8

## CC(C)[C@H](N)C(=O)O [V]
[1]
  Hydrophobicity of amino acid: 4.2
